Experimental data as given in US9096624B2 (OSI Pharmaceuticals, LLC, priority 2009, dated 2015).

Legend:
[1] = molecular target: T1, FAK (Homo sapiens, UniProt Q05397); experiment: Cell-based capture ELISA for inhibition of FAK autophosphorylation [pY397] in U87MG cells; conditions: Mean FAK Cell Mechanistic IC50 + 50% mP U87MG, + 50% mouse plasma
[2] = molecular target: T1, FAK; experiment: biochemical

T1 sequence (Q05397 whole entry): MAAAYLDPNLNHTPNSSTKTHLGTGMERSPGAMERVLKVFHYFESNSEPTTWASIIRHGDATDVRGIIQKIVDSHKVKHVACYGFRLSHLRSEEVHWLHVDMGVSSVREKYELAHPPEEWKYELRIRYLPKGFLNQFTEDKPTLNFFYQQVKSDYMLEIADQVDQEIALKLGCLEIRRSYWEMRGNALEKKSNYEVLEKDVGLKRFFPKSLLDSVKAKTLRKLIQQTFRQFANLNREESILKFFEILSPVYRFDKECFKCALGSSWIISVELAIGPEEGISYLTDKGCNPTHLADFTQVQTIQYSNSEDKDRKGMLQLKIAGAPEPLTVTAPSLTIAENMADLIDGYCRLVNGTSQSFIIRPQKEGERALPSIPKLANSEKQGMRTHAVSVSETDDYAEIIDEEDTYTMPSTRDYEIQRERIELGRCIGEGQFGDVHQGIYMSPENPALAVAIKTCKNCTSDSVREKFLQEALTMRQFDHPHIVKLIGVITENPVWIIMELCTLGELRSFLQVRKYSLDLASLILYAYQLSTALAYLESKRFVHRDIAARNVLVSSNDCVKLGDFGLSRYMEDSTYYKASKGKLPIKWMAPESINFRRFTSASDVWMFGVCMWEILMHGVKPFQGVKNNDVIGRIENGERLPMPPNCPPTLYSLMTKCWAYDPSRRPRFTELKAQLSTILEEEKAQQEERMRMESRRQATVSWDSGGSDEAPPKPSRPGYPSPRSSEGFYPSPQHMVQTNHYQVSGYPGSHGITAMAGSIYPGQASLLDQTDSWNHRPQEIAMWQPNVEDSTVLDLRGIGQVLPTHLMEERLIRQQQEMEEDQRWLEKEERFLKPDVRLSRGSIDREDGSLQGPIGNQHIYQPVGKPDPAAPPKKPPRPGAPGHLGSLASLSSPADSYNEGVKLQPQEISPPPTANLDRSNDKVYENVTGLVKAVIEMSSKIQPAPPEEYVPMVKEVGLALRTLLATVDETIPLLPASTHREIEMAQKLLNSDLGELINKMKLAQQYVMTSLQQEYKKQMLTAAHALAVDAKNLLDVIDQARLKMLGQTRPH

| SMILES | IC50 [1] [nM] | IC50 [2] [nM] |
| --- | --- | --- |
| CCOP(=O)(Cc1ccc(Nc2ncc(C(F)(F)F)c(Nc3ccc([C@H]4CC[C@H](C(=O)O)CC4)c4[nH]cc(C)c(=O)c34)n2)c(OC)c1)OCC [Example 307, Trans-4-(5-{[2-({4-[(diethoxyphosphoryl)methyl]-2-methoxyphenyl}amino)-5-(trifluoromethyl)pyrimidin-4-yl]amino}-3-methyl-4-oxo-1,4-dihydroquinolin-8-yl)cyclohexanecarboxylic acid] | 1000 to 10000 | < 1000 |
| CCOP(=O)(Cc1ccc(Nc2ncc(C(F)(F)F)c(Nc3ccc(N4CCC(C(=O)O)CC4)c4c3C(=O)N(C)C4)n2)c(OC)c1)OCC [Example 256, 1-(7-{[2-({4-[(Diethoxyphosphoryl)methyl]-2-methoxyphenyl}amino)-5-(trifluoromethyl)pyrimidin-4-yl]amino}-2-methyl-1-oxo-2,3-dihydro-1H-isoindol-4-yl)piperidine-4-carboxylic acid] | < 1000 | < 1000 |
| CCOP(=O)(Cc1ccc(Nc2ncc(C(F)(F)F)c(Nc3ccc([C@H]4CC[C@@H](C(=O)NC)CC4)c4c3C(=O)N(C)C4)n2)c(OC)c1)OCC [Example 271, Diethyl (3-methoxy-4-{[4-({2-methyl-7-[cis-4-(methylcarbamoyl)cyclohexyl]-3-oxo-2,3-dihydro-1H-isoindol-4-yl}amino)-5-(trifluoromethyl)pyrimidin-2-yl]amino}benzyl) phosphonate] | < 1000 | < 1000 |
| CCOP(=O)(Cc1ccc(Nc2ncc(C(F)(F)F)c(Nc3ccc([C@H]4CC[C@@H](C(=O)O)CC4)c4c3C(=O)N(C)C4)n2)cn1)OCC [Example 267, cis-4-(7-{[2-({6-[(Diethoxyphosphoryl)methyl]pyridin-3-yl}amino)-5-(trifluoromethyl)pyrimidin-4-yl]amino}-2-methyl-1-oxo-2,3-dihydro-1H-isoindol-4-yl)cyclohexanecarboxylic acid] | 1000 to 10000 | > 10000 |
| CCOP(=O)(Cc1ccc(Nc2ncc(C(F)(F)F)c(Nc3ccc([C@H]4CC[C@H](OCOP(=O)(O)O)CC4)c4c3C(=O)N(C)C4)n2)c(OC)c1)OCC [Example 288, {[trans-4-(7-{[2-({4-[(diethoxyphosphoryl)methyl]-2-methoxyphenyl}amino)-5-(trifluoromethyl)pyrimidin-4-yl]amino}-2-methyl-1-oxo-2,3-dihydro-1H-isoindol-4-yl)cyclohexyl]oxy}methyl phosphate] | < 1000 | < 1000 |
| CCOP(=O)(Cc1ccc(Nc2ncc(C(F)(F)F)c(Nc3ccc([C@H]4CC[C@@H](C(=O)N(C)C)CC4)c4c3C(=O)N(C)C4)n2)c(OC)c1)OCC [Example 273, Diethyl (4-{[4-({7-[cis-4-(dimethylcarbamoyl)cyclohexyl]-2-methyl-3-oxo-2,3-dihydro-1H-isoindol-4-yl}amino)-5-(trifluoromethyl)pyrimidin-2-yl]amino}-3-methoxybenzyl)phosphonate] | < 1000 | < 1000 |
| CCOP(=O)(Cc1ccc(Nc2ncc(C(F)(F)F)c(Nc3ccc([C@H]4CC[C@@H](C#N)CC4)c4c3C(=O)N(C)C4)n2)c(OC)c1)OCC [Example 283, Diethyl (4-{[4-{[7-(cis-4-cyanocyclohexyl)-2-methyl-3-oxo-2,3-dihydro-1H-isoindol-4-yl]amino}-5-(trifluoromethyl)pyrimidin-2-yl]amino}-3-methoxybenzyl)phosphonate] | < 1000 | < 1000 |
| CCOP(=O)(Cc1ccc(Nc2ncc(C(F)(F)F)c(Nc3ccc([C@H]4CC[C@@H](C(=O)OCCN(C)C)CC4)c4c3C(=O)N(C)C4)n2)c(OC)c1)OCC [Example 274, 2-(Dimethylamino)ethyl cis-4-(7-{[2-({4-[(diethoxyphosphoryl)methyl]-2-methoxyphenyl}amino)-5-(trifluoromethyl)pyrimidin-4-yl]amino}-2-methyl-1-oxo-2,3-dihydro-1H-isoindol-4-yl)cyclohexanecarboxylate] | < 1000 | < 1000 |
| CCOP(=O)(Cc1ccc(Nc2ncc(C(F)(F)F)c(Nc3cccc4c3c(=O)c(C)cn4CP(=O)(OCC)OCC)n2)c(OC)c1)OCC [Example 303] | < 1000 | < 1000 |
| CCOP(=O)(Cc1ccc(Nc2ncc(C(F)(F)F)c(Nc3ccc(C4CCC(O)(C(=O)O)CC4)c4c3C(=O)N(C)C4)n2)c(OC)c1)OCC (single isomer, unassigned) [Example 278, 4-(7-{2-[4-(Diethoxy-phosphorylmethyl)-2-methoxy-phenylamino]-5-trifluoromethyl-pyrimidin-4-ylamino}-2-methyl-1-oxo-2,3-dihydro-1H-isoindol-4-yl)-1-hydroxy-cyclohexanecarboxylic acid] | 1000 to 10000 | < 1000 |
| CCOP(=O)(Cc1ccc(Nc2ncc(C(F)(F)F)c(Nc3ccc([C@H]4CC[C@](C)(C(=O)O)CC4)c4c3C(=O)N(C)C4)n2)c(OC)c1)OCC [Example 282, trans-4-(7-{[2-({4-[(Diethoxyphosphoryl)methyl]-2-methoxyphenyl}amino)-5-(trifluoromethyl)pyrimidin-4-yl]amino}-2-methyl-1-oxo-2,3-dihydro-1H-isoindol-4-yl)-1-methylcyclohexanecarboxylic acid] | < 1000 | < 1000 |
| CCOP(=O)(Cc1ccc(Nc2ncc(C(F)(F)F)c(Nc3ccc([C@H]4CC[C@@](C(=O)O)(N(C)C)CC4)c4c3C(=O)N(C)C4)n2)c(OC)c1)OCC [Example 285, cis-4-(7-{[2-({4-[(diethoxyphosphoryl)methyl]-2-methoxyphenyl}amino)-5-(trifluoromethyl)pyrimidin-4-yl]amino}-2-methyl-1-oxo-2,3-dihydro-1H-isoindol-4-yl)-1-(dimethylamino)cyclohexanecarboxylic acid] | < 1000 | < 1000 |
| CCOP(=O)(Cc1ccc(Nc2ncc(C(F)(F)F)c(Nc3ccc([C@H]4CC[C@H](C(=O)O)CC4)c4c3C(=O)N(C)C4)n2)cn1)OCC [Example 268, trans-4-(7-{[2-({6-[(diethoxyphosphoryl)methyl]pyridin-3-yl}amino)-5-(trifluoromethyl)pyrimidin-4-yl]amino}-2-methyl-1-oxo-2,3-dihydro-1H-isoindol-4-yl)cyclohexanecarboxylic acid] | 1000 to 10000 | 1000 to 10000 |
| CCOP(=O)(Cc1ccc(Nc2ncc(C(F)(F)F)c(Nc3ccc([C@H]4CC[C@@H](C(=O)NOC)CC4)c4c3C(=O)N(C)C4)n2)c(OC)c1)OCC [Example 276, Diethyl (3-methoxy-4-{[4-({7-[cis-4-(methoxycarbamoyl)cyclohexyl]-2-methyl-3-oxo-2,3-dihydro-1H-isoindol-4-yl}amino)-5-(trifluoromethyl)pyrimidin-2-yl]amino}benzyl)phosphonate] | < 1000 | < 1000 |
| CCOP(=O)(Cc1ccc(Nc2ncc(C(F)(F)F)c(Nc3cccc(F)c3C(=O)NC)n2)c(OC)c1)OCC [Example 155, diethyl (4-{[4-{[3-fluoro-2-(methylcarbamoyl)phenyl]amino}-5-(trifluoromethyl)pyrimidin-2-yl]amino}-3-methoxybenzyl)phosphonate] | < 1000 | < 1000 |
